#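 Dose response: 5 concentrations. Exposure: 48 h. Format: 96-well plates. Endpoint: linear interpolation; highest concentration if not reached. Abbreviation: GI50, concentration required for 50% inhibition of growth. TGI denotes the concentration required for complete inhibition of growth.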
# What was measured:
# Test in all cases: NCI tumour cell line growth inhibition, 48 h
# OVCAR-8 ovarian = system: OVCAR-8 ovarian
# NCI-H460 lung = system: NCI-H460 lung
# HOP-62 NSCLC = system: HOP-62 NSCLC
# SK-MEL-2 melanoma = system: SK-MEL-2 melanoma
# HS 578T breast = system: HS 578T breast
# SN12C renal = system: SN12C renal
# OVCAR-5 ovarian = system: OVCAR-5 ovarian
# RXF 393 renal = system: RXF 393 renal
# CAKI-1 renal = system: CAKI-1 renal
# SK-OV-3 ovarian = system: SK-OV-3 ovarian
Structure (SMILES),GI50 (OVCAR-8 ovarian) [µM],TGI (OVCAR-8 ovarian) [µM],GI50 (NCI-H460 lung) [µM],TGI (NCI-H460 lung) [µM],GI50 (HOP-62 NSCLC) [µM],TGI (HOP-62 NSCLC) [µM],GI50 (SK-MEL-2 melanoma) [µM],TGI (SK-MEL-2 melanoma) [µM],GI50 (HS 578T breast) [µM],TGI (HS 578T breast) [µM],GI50 (SN12C renal) [µM],TGI (SN12C renal) [µM],GI50 (OVCAR-5 ovarian) [µM],TGI (OVCAR-5 ovarian) [µM],GI50 (RXF 393 renal) [µM],TGI (RXF 393 renal) [µM],GI50 (CAKI-1 renal) [µM],TGI (CAKI-1 renal) [µM],TGI (SK-OV-3 ovarian) [µM],GI50 (SK-OV-3 ovarian) [µM]
O=C(Nc1cccc(-n2ccc3c(NC(=O)c4ccccc4)ncnc32)c1)Nc1ccc(Cl)c(C(F)(F)F)c1,1.95,6.67,2.13,9.88,5.62,11.8,1.18,3.64,2.55,22.6,3.09,9.86,2.38,9.69,1.68,6.66,2.04,10.9,–,–
C[N+]1(C)CCCC(C#N)(c2ccccc2)CC1 (configuration not stated),–,> 100,–,> 100,–,> 100,–,–,–,> 100,–,–,–,> 100,–,> 100,–,> 100,> 100,–
Nc1nc(Cl)c(CO)c(NCC2(CO)CCC2)n1,–,> 100,–,> 100,–,> 100,–,–,–,> 100,–,> 100,–,> 100,–,> 100,–,> 100,–,–
Cc1ccc(S(=O)(=O)OC[C@@]2(C)CC[C@]3(C)CC[C@]4(C)C(=C3C2)C=C[C@@H]2[C@@]3(C)CCCNC(C)(C)[C@@H]3CC[C@]24C)cc1,–,–,–,–,–,–,1.88,3.52,1.94,4.26,–,–,1.77,3.21,1.35,2.86,1.61,3.06,3.25,1.79
O=c1cc(-c2cccc(OC(F)(F)F)c2)[nH]c2ccc(N3CCCC3)cc12,–,–,–,–,–,–,–,0.000848,–,86.2,–,55.9,–,> 100,–,0.738,–,> 100,–,–
N#C[S-].[La+3].c1ccc(-c2ccccn2)nc1.c1ccc(-c2ccccn2)nc1.c1ccc(-c2ccccn2)nc1,25.9,> 100,22.5,88.2,–,–,21.5,53.6,–,–,19.2,> 100,15,55.1,22.5,84.7,12.9,60.8,99.6,31.7
OCCc1ccsc1-c1sc(-c2cc(CCO)c(-c3sc(-c4cc(CCO)c(-c5sccc5CCO)s4)cc3CCO)s2)cc1CCO,–,3.13,–,2.95,–,2.76,–,3.35,–,7.31,–,–,–,2.85,–,1.21,–,2.95,3.11,–
Cc1ccc(S(=O)(=O)N/N=C2\C=CC3(CC2)C(=O)N(I)c2ccccc23)cc1 (configuration not stated),–,> 100,–,> 100,–,> 100,–,> 100,–,–,–,> 100,–,> 100,–,98,–,> 100,> 100,–
COc1ccc(OC)c2c(C(C)=O)cccc12,–,> 100,–,> 100,–,> 100,–,–,–,> 100,–,> 100,–,> 100,–,> 100,–,–,> 100,–
Cc1c2cc[n+](Cc3ccc(I)cc3)cc2c(C)c2c1[nH]c1ccccc12,–,11.8,–,1.93,–,> 21.7,–,1.64,–,–,–,> 25,–,11.3,–,> 25,–,3.51,> 13.5,–
CO[C@@]12C[C@H](CNC(=O)c3ccc[nH]3)O[C@@H]1NC(=O)N2,–,> 100,–,> 100,–,> 100,–,> 100,–,> 100,–,> 100,–,> 100,–,–,–,> 100,> 100,–
CNC(=O)OCc1cnc([N+](=O)[O-])n1C,–,> 100,–,> 100,–,> 100,–,> 100,–,> 100,–,> 100,–,> 100,–,> 100,–,> 100,–,–
O=C(C[N+]12CN3CN(CN(C3)C1)C2)c1ccc(-c2ccccc2)cc1,–,> 100,–,30.9,–,55.4,–,35.2,–,> 100,–,45.1,–,37.6,–,37.7,–,> 100,–,–
S=C(NCc1ccccn1)N/N=C/c1ccccn1,–,> 100,–,2.7,–,–,–,0.876,–,70.1,–,9.25,–,> 100,–,4.52,–,4.33,97.9,–
CCOC(=O)c1ccc(N(CCOS(C)(=O)=O)CCOS(C)(=O)=O)cc1,–,> 100,–,> 100,–,–,–,> 100,–,> 100,–,–,–,> 100,–,38.5,–,29.1,–,–
COc1cc2c(oc(=O)c3c4occc4cc(OC)c23)c2cccc(O)c12,–,> 100,–,> 100,–,> 100,–,–,–,–,–,> 100,–,> 100,–,> 100,–,> 100,> 100,–
CC(=O)N[C@@H](Cc1ccc(O)cn1)C(=O)NCc1ccc(Cl)cc1,–,> 100,–,> 100,–,> 100,–,> 100,–,–,–,> 100,–,> 100,–,> 100,–,> 100,> 100,–
CC1OC(OC2C(O)CC(OC3C(O)CC(OC4CCC5(C)C(CCC6C5CCC5(C)C(C7=CC(=O)OC7)C(O)CC65O)C4)OC3C)OC2C)CC(O)C1O (configuration not stated),–,0.813,–,0.532,–,2.66,–,1.55,–,> 100,–,–,–,5.62,–,0.299,–,0.396,1.31,–
CC(=O)Oc1ccc2cc(Oc3cc(Cl)c(Cl)cc3Cl)c(=O)oc2c1,–,34.7,–,37.8,–,36.2,–,–,–,65,–,28.1,–,71.2,–,31.5,–,33.6,–,–
Nc1nc(Cl)c2ncn(CCCC(c3ccccc3)P(=O)(O)O)c2n1 (configuration not stated),–,> 100,–,> 100,–,> 100,–,> 100,–,–,–,> 100,–,> 100,–,–,–,> 100,> 100,–
C[C@]12CC[C@H]3[C@@H](CC=C4C[C@@H](O)CC[C@@]43C)[C@@H]1C/C(=C\c1cccnc1)[C@@H]2O,–,36.3,–,> 100,–,29.4,–,> 100,–,33.3,–,55.2,–,> 100,–,80.2,–,–,34.2,–
CNC(=O)[C@H](Cc1ccccc1)NC(=O)N(CCC#N)CCN(C(=O)N[C@@H](Cc1ccccc1)C(=O)OC)c1ccccc1,–,> 100,–,> 100,–,> 100,–,> 100,–,> 100,–,–,–,> 100,–,> 100,–,> 100,> 100,–

Structure (SMILES),GI50 (OVCAR-8 ovarian) [µM],TGI (OVCAR-8 ovarian) [µM],GI50 (NCI-H460 lung) [µM],TGI (NCI-H460 lung) [µM],GI50 (HOP-62 NSCLC) [µM],TGI (HOP-62 NSCLC) [µM],GI50 (SK-MEL-2 melanoma) [µM],TGI (SK-MEL-2 melanoma) [µM],GI50 (HS 578T breast) [µM],TGI (HS 578T breast) [µM],GI50 (SN12C renal) [µM],TGI (SN12C renal) [µM],GI50 (OVCAR-5 ovarian) [µM],TGI (OVCAR-5 ovarian) [µM],GI50 (RXF 393 renal) [µM],TGI (RXF 393 renal) [µM],GI50 (CAKI-1 renal) [µM],TGI (CAKI-1 renal) [µM],TGI (SK-OV-3 ovarian) [µM],GI50 (SK-OV-3 ovarian) [µM]
Nc1nc(SCc2ccccc2Cl)c2ncn(C3OC(CO)C(O)C3O)c2n1 (configuration not stated),–,> 100,–,> 100,–,> 100,–,> 100,–,–,–,> 100,–,> 100,–,> 100,–,> 100,> 100,–
COc1cc2c(c(OC)c1OC)C(=O)c1c(O)cc(C)c(OC)c1C2=O,–,> 100,–,> 100,–,> 100,–,> 100,–,70.1,–,> 100,–,> 100,–,–,–,> 100,–,–
CC(C)(C)OC(=O)Cn1ncn(NC(=O)Cc2ccccc2)c1=S,–,> 10,–,> 10,–,> 10,–,–,–,> 10,–,> 10,–,> 10,–,–,–,> 10,> 10,–
CCCCCCCCCCCC1N=C(N)N=C(N)N1c1cccc(Br)c1 (configuration not stated),1.73,3.31,0.0779,1.65,–,–,1.55,2.99,2.08,4.77,–,–,0.811,2.22,–,–,1.8,4.12,4.28,1.92
CCOC(=O)C(O)(CC1=NC(C(=O)OC)(C(=O)OC)C(c2cccc(C=O)c2)O1)C(=O)OCC (configuration not stated),–,> 100,–,> 100,–,> 100,–,> 100,–,–,–,> 100,–,> 100,–,> 100,–,> 100,> 100,–
CCOC(=O)C1=C(O)CC(=O)N=C1N1CCCC1,–,> 100,–,–,–,> 100,–,> 100,–,> 100,–,> 100,–,> 100,–,> 100,–,> 100,> 100,–
C/C(=C\C(=O)Nc1ccc2n[nH]nc2c1)Nc1ccc2n[nH]nc2c1,–,> 100,–,> 100,–,> 100,–,–,–,–,–,> 100,–,> 100,–,> 100,–,> 100,> 100,–
O=C(/C=C/c1ccc(-c2ccccc2)cc1)NCc1ccc(C(=O)NCCc2ccccc2)cc1,–,> 100,–,> 100,–,> 100,–,> 100,–,–,–,> 100,–,> 100,–,94.9,–,> 100,> 100,–
COC(=O)CN1CCN(c2cccc3c2CCCC3)CC1,–,> 100,–,> 100,–,> 100,–,> 100,–,> 100,–,> 100,–,> 100,–,> 100,–,> 100,–,–
CN(C)C(=O)C(F)(F)C(c1ccccc1Br)C1C(=O)N(C)C(=O)N(C)C1=O (configuration not stated),–,> 100,–,> 100,–,> 100,–,> 100,–,–,–,–,–,> 100,–,> 100,–,> 100,> 100,–
O/N=C\c1c2c(cc3c1CCC3)CCC2,–,> 100,–,> 100,–,> 100,–,> 100,–,> 100,–,> 100,–,> 100,–,–,–,> 100,> 100,–
[CH3][Sn]([CH3])([CH3])[S]C(=S)N1CCOCC1,3.69,> 85.4,1.05,4.38,2.28,4.86,1.51,4.75,–,–,7.55,> 100,2.5,> 28.2,0.7,–,4,> 46.4,29.3,9.81
CC1CC(=O)N(N(C)C)C2(C#N)C(=O)N=C(N)C12C#N (configuration not stated),–,> 100,–,–,–,> 100,–,> 100,–,> 100,–,> 100,–,> 100,–,> 100,–,48.3,> 100,–
ClC1=NSSC1(Cl)Cl,–,87.2,–,> 100,–,> 100,–,> 100,–,–,–,41.7,–,85,–,> 100,–,34.8,–,–
CCOc1ccc(C2=NN(CC)C(=O)C(C3C(=O)N(c4ccccc4)N=C3C)C2)cc1 (configuration not stated),–,> 100,–,> 100,–,> 100,–,> 100,–,–,–,–,–,> 100,–,> 100,–,> 100,> 100,–
CC(=O)OC1CCn2c1nc1cc([N+](=O)[O-])c(C)cc12 (configuration not stated),–,> 100,–,> 100,–,–,–,> 100,–,> 100,–,> 100,–,–,–,> 100,–,> 100,> 100,–
Brc1ccc2[nH]c3c(C4=NCCC4)nccc3c2c1,–,> 100,–,> 32.8,–,> 42.2,–,> 53.3,–,–,–,> 91.6,–,> 29.7,–,71.2,–,> 53.1,> 100,–
NC(Cc1ccccc1)C(=O)OCN1C(=O)C2C3C=CC(C2C1=O)C1C(=O)N(COC(=O)C(N)Cc2ccccc2)C(=O)C31 (configuration not stated),–,> 100,–,> 100,–,> 100,–,52,–,> 100,–,> 100,–,> 100,–,> 100,–,> 100,–,–
CNC(=S)N/N=C/C(C)=N/NC(=S)NC,–,–,–,> 100,–,> 100,–,> 100,–,–,–,> 100,–,> 100,–,> 100,–,–,> 100,–
O=C1NC(N2CCCC(CO)C2)=N/C1=C\c1cccs1 (configuration not stated),–,> 100,–,–,–,> 100,–,> 100,–,> 100,–,> 100,–,> 100,–,> 100,–,> 100,> 100,–
NC(=S)NNCC(=O)CC(O)(C(F)(F)F)C(F)(F)Cl (configuration not stated),–,> 100,–,> 100,–,–,–,> 100,–,> 100,–,–,–,> 100,–,> 100,–,> 100,> 100,–
CSc1c(C(C)=O)c(O)n(-c2ccc(C)cc2)c(=O)c1C#N,–,> 100,–,> 100,–,–,–,> 100,–,> 100,–,> 100,–,> 100,–,> 100,–,> 100,> 100,–

# — PubChem BioAssay (NCI)
